Source: ChEMBL document CHEMBL1287680, “C-11 diamino cryptolepine derivatives NSC748392, NSC748393, and NSC748394: anticancer profile and G-quadruplex stabilization” (Bioorg Med Chem Lett, 2010)

Experiments:
Nucleic Acid = conditions: Homo sapiens
Description: Binding affinity to human duplex DNA assessed as change in melting temperature by FRET-melting assay

SN12C = test: cells; conditions: Homo sapiens; for GI50: read-out: pGI50 (converted); for CC50: read-out: pLC50 (converted); for TGI: read-out: pTGI
Description: Anticancer activity against human SN12C cells

SNB-75 = test: cells; conditions: Homo sapiens; for GI50: SNB-75, read-out: pGI50 (converted); for CC50: SNB-75, read-out: pLC50 (converted); for TGI: SNB-75, read-out: pTGI
Description: Anticancer activity against human SNB75 cells

MDA-MB-435 = test: cells; conditions: Homo sapiens; for GI50: MDA-MB-435, read-out: pGI50 (converted); for CC50: MDA-MB-435, read-out: pLC50 (converted); for TGI: MDA-MB-435, read-out: pTGI
Description: Anticancer activity against human MDA-MB-435 cells

Vero = test: cells; conditions: Chlorocebus sabaeus, 48 h
Description: Cytotoxicity against african green monkey Vero cells after 48 hrs by MTT assay

MCF7 = test: cells; conditions: Homo sapiens; for GI50: MCF7, read-out: pGI50 (converted); for CC50: MCF7, read-out: pLC50 (converted); for TGI: MCF7, read-out: pTGI
Description: Anticancer activity against human MCF7 cells

HCC 2998 = test: cells; conditions: Homo sapiens; for GI50: HCC 2998, read-out: pGI50 (converted); for CC50: HCC 2998, read-out: pLC50 (converted); for TGI: HCC 2998, read-out: pTGI
Description: Anticancer activity against human HCC2998 cells

IGROV-1 = test: cells; conditions: Homo sapiens; for GI50: IGROV-1, read-out: pGI50 (converted); for CC50: IGROV-1, read-out: pLC50 (converted); for TGI: IGROV-1, read-out: pTGI
Description: Anticancer activity against human IGROV1 cells

SK-MEL-28 = test: cells; conditions: Homo sapiens; for GI50: SK-MEL-28, read-out: pGI50 (converted); for CC50: SK-MEL-28, read-out: pLC50 (converted); for TGI: SK-MEL-28, read-out: pTGI
Description: Anticancer activity against human SK-MEL-28 cells

UO-31 = test: cells; conditions: Homo sapiens; for GI50: UO-31, read-out: pGI50 (converted); for CC50: UO-31, read-out: pLC50 (converted); for TGI: UO-31, read-out: pTGI
Description: Anticancer activity against human UO31 cells

OVCAR-8 = test: cells; conditions: Homo sapiens; for GI50: OVCAR-8, read-out: pGI50 (converted); for CC50: OVCAR-8, read-out: pLC50 (converted); for TGI: OVCAR-8, read-out: pTGI
Description: Anticancer activity against human OVCAR8 cells

RXF 393 = test: cells; conditions: Homo sapiens; for GI50: RXF 393, read-out: pGI50 (converted); for CC50: RXF 393, read-out: pLC50 (converted); for TGI: RXF 393, read-out: pTGI
Description: Anticancer activity against human RXF393 cells

M14 = test: cells; conditions: Homo sapiens; for GI50: M14, read-out: pGI50 (converted); for CC50: M14, read-out: pLC50 (converted); for TGI: M14, read-out: pTGI
Description: Anticancer activity against human M14 cells

HL-60(TB) = test: cells; conditions: Homo sapiens; for GI50: HL-60, read-out: pGI50 (converted); for CC50: HL-60, read-out: pLC50 (converted); for TGI: HL-60, read-out: pTGI
Description: Anticancer activity against human HL-60(TB) cells

TK-10 = test: cells; conditions: Homo sapiens; for GI50: TK-10, read-out: pGI50 (converted); for CC50: TK-10, read-out: pLC50 (converted); for TGI: TK-10, read-out: pTGI
Description: Anticancer activity against human TK10 cells

cells = conditions: Homo sapiens; for GI50: RPMI8266, read-out: pGI50 (converted); for CC50: RPMI8266, read-out: pLC50 (converted); for TGI: RPMI8266, read-out: pTGI
Description: Anticancer activity against human RPMI8266 cells

SF-268 = test: cells; conditions: Homo sapiens; for GI50: SF-268, read-out: pGI50 (converted); for CC50: SF-268, read-out: pLC50 (converted); for TGI: SF-268, read-out: pTGI
Description: Anticancer activity against human SF268 cells

CAKI-1 = test: cells; conditions: Homo sapiens; for GI50: CAKI-1, read-out: pGI50 (converted); for CC50: CAKI-1, read-out: pLC50 (converted); for TGI: CAKI-1, read-out: pTGI
Description: Anticancer activity against human Caki1 cells

SK-OV-3 = test: cells; conditions: Homo sapiens; for GI50: SK-OV-3, read-out: pGI50 (converted); for CC50: SK-OV-3, read-out: pLC50 (converted); for TGI: SK-OV-3, read-out: pTGI
Description: Anticancer activity against human SKOV3 cells

NCI/ADR-RES = test: cells; conditions: Homo sapiens; for GI50: read-out: pGI50 (converted); for CC50: read-out: pLC50 (converted); for TGI: read-out: pTGI
Description: Anticancer activity against human NCI/ADR-RES cells

K562 = test: cells; conditions: Homo sapiens; for CC50: K562, read-out: pLC50 (converted)
Description: Anticancer activity against human K562 cells

NCI-H226 = test: cells; conditions: Homo sapiens; for GI50: NCI-H226, read-out: pGI50 (converted); for CC50: NCI-H226, read-out: pLC50 (converted); for TGI: NCI-H226, read-out: pTGI
Description: Anticancer activity against human NCI-H226 cells

HT-29 = test: cells; conditions: Homo sapiens; for GI50: HT-29, read-out: pGI50 (converted); for CC50: HT-29, read-out: pLC50 (converted); for TGI: HT-29, read-out: pTGI
Description: Anticancer activity against human HT-29 cells

DU-145 = test: cells; conditions: Homo sapiens; for GI50: DU-145, read-out: pGI50 (converted); for CC50: DU-145, read-out: pLC50 (converted); for TGI: DU-145, read-out: pTGI
Description: Anticancer activity against human DU145 cells

HOP-62 = test: cells; conditions: Homo sapiens; for GI50: HOP-62, read-out: pGI50 (converted); for CC50: HOP-62, read-out: pLC50 (converted); for TGI: HOP-62, read-out: pTGI
Description: Anticancer activity against human HOP62 cells

KM12 = test: cells; conditions: Homo sapiens; for GI50: KM12, read-out: pGI50 (converted); for CC50: KM12, read-out: pLC50 (converted); for TGI: KM12, read-out: pTGI
Description: Anticancer activity against human KM12 cells

ACHN = test: cells; conditions: Homo sapiens; for GI50: read-out: pGI50 (converted); for CC50: read-out: pLC50 (converted); for TGI: read-out: pTGI
Description: Anticancer activity against human ACHN cells

HCT-116 = test: cells; conditions: Homo sapiens; for GI50: HCT-116, read-out: pGI50 (converted); for CC50: HCT-116, read-out: pLC50 (converted); for TGI: HCT-116, read-out: pTGI
Description: Anticancer activity against human HCT116 cells

OVCAR-4 = test: cells; conditions: Homo sapiens; for GI50: OVCAR-4, read-out: pGI50 (converted); for TGI: OVCAR-4, read-out: pTGI
Description: Anticancer activity against human OVCAR4 cells

OVCAR-5 = test: cells; conditions: Homo sapiens; for GI50: OVCAR-5, read-out: pGI50 (converted); for CC50: OVCAR-5, read-out: pLC50 (converted); for TGI: OVCAR-5, read-out: pTGI
Description: Anticancer activity against human OVCAR5 cells

Description for physchem: Dissociation constant, pKa of the compound by UV-visible spectroscopy

CCN(CC)CCCCNc1c2ccccc2[n+](C)c2c1[nH]c1ccccc12.[Cl-]
ΔTm (Nucleic Acid): 13.1 °C
GI50 (SN12C): 52.5 nM
CC50 (SN12C): > 72.4 µM
TGI (SN12C): 3240 nM
GI50 (SNB-75): 347 nM
CC50 (SNB-75): 3.8 µM
TGI (SNB-75): 1.29 µM
GI50 (MDA-MB-435): 631 nM
CC50 (MDA-MB-435): 5.62 µM
TGI (MDA-MB-435): 2.09 µM
IC50 (Vero): 62 µM
GI50 (MCF7): 224 nM
CC50 (MCF7): > 36.3 µM
TGI (MCF7): 794 nM
GI50 (HCC 2998): 269 nM
CC50 (HCC 2998): 3.63 µM
TGI (HCC 2998): 759 nM
GI50 (IGROV-1): 468 nM
CC50 (IGROV-1): > 100 µM
TGI (IGROV-1): 7.41 µM
GI50 (SK-MEL-28): 186 nM
CC50 (SK-MEL-28): 1.74 µM
TGI (SK-MEL-28): 490 nM
GI50 (UO-31): 2.4 µM
CC50 (UO-31): > 100 µM
TGI (UO-31): 25.7 µM
pKa (physchem): 11.6
GI50 (OVCAR-8): 617 nM
CC50 (OVCAR-8): > 100 µM
TGI (OVCAR-8): 10.2 µM
GI50 (RXF 393): 389 nM
CC50 (RXF 393): 8.13 µM
TGI (RXF 393): 1.51 µM
GI50 (M14): 1350 nM
CC50 (M14): 7.41 µM
TGI (M14): 3.16 µM
GI50 (HL-60(TB)): 20.4 µM
CC50 (HL-60(TB)): > 100 µM
TGI (HL-60(TB)): > 100 µM
GI50 (TK-10): 2140 nM
CC50 (TK-10): > 100 µM
TGI (TK-10): 8.91 µM
GI50 (cells): 288 nM
CC50 (cells): > 100 µM
TGI (cells): 1660 nM
GI50 (SF-268): 224 nM
CC50 (SF-268): 33.1 µM
TGI (SF-268): 1580 nM
GI50 (CAKI-1): 6.92 µM
CC50 (CAKI-1): 100 µM
TGI (CAKI-1): 32.4 µM
GI50 (SK-OV-3): 251 nM
CC50 (SK-OV-3): 100 µM
TGI (SK-OV-3): 1820 nM
GI50 (NCI/ADR-RES): 69.2 µM
CC50 (NCI/ADR-RES): > 100 µM
TGI (NCI/ADR-RES): > 100 µM
CC50 (K562): > 100 µM
TGI (K562; K562, read-out: pTGI): > 100 µM
GI50 (NCI-H226): 166 nM
CC50 (NCI-H226): > 100 µM
TGI (NCI-H226): 676 nM
GI50 (HT-29): 251 nM
CC50 (HT-29): > 100 µM
TGI (HT-29): 1.91 µM
GI50 (DU-145): 170 nM
CC50 (DU-145): 89.1 µM
TGI (DU-145): 10 µM
GI50 (HOP-62): 1100 nM
CC50 (HOP-62): 61.7 µM
TGI (HOP-62): 4.47 µM
GI50 (KM12): 372 nM
CC50 (KM12): 70.8 µM
TGI (KM12): 4.47 µM
GI50 (ACHN): 2.95 µM
CC50 (ACHN): > 100 µM
TGI (ACHN): 22.4 µM
GI50 (HCT-116): 331 nM
CC50 (HCT-116): > 100 µM
TGI (HCT-116): 3.8 µM
GI50 (OVCAR-4): 437 nM
TGI (OVCAR-4): 1700 nM
GI50 (OVCAR-5): 851 nM
CC50 (OVCAR-5): > 100 µM
TGI (OVCAR-5): 4.17 µM

C[n+]1c2ccccc2c(NC2CCNCC2)c2[nH]c3ccccc3c21.[Cl-]
ΔTm (Nucleic Acid): 15.1 °C
GI50 (SN12C): 29.5 nM
CC50 (SN12C): > 100 µM
TGI (SN12C): 316 nM
GI50 (SNB-75): 1380 nM
CC50 (SNB-75): 24.5 µM
TGI (SNB-75): 5.37 µM
GI50 (MDA-MB-435): 2950 nM
CC50 (MDA-MB-435): 42.7 µM
TGI (MDA-MB-435): 10.5 µM
IC50 (Vero): 10 µM
GI50 (MCF7): 224 nM
CC50 (MCF7): > 100 µM
TGI (MCF7): 2140 nM
GI50 (HCC 2998): 324 nM
CC50 (HCC 2998): 5.25 µM
TGI (HCC 2998): 1700 nM
GI50 (IGROV-1): 363 nM
CC50 (IGROV-1): > 100 µM
TGI (IGROV-1): 5.01 µM
GI50 (SK-MEL-28): 1050 nM
CC50 (SK-MEL-28): 10.5 µM
TGI (SK-MEL-28): 3240 nM
GI50 (UO-31): 13.2 µM
CC50 (UO-31): > 100 µM
TGI (UO-31): 46.8 µM
pKa (physchem): 11.8
GI50 (OVCAR-8): 1740 nM
CC50 (OVCAR-8): 45.7 µM
TGI (OVCAR-8): 12.3 µM
GI50 (RXF 393): 1620 nM
CC50 (RXF 393): 26.3 µM
TGI (RXF 393): 4.9 µM
GI50 (M14): 3160 nM
CC50 (M14): 43.7 µM
TGI (M14): 15.1 µM
GI50 (HL-60(TB)): 2.19 µM
CC50 (HL-60(TB)): > 100 µM
TGI (HL-60(TB)): > 100 µM
GI50 (TK-10): 3090 nM
CC50 (TK-10): > 100 µM
TGI (TK-10): 14.5 µM
GI50 (cells): 661 nM
CC50 (cells): > 100 µM
TGI (cells): 3890 nM
GI50 (SF-268): 45.7 nM
CC50 (SF-268): 42.7 µM
TGI (SF-268): 1380 nM
GI50 (CAKI-1): 15.1 µM
CC50 (CAKI-1): > 100 µM
TGI (CAKI-1): 60.3 µM
GI50 (SK-OV-3): 447 nM
CC50 (SK-OV-3): 77.6 µM
TGI (SK-OV-3): 3890 nM
GI50 (NCI/ADR-RES): > 100 µM
CC50 (NCI/ADR-RES): > 100 µM
TGI (NCI/ADR-RES): > 100 µM
GI50 (K562; K562, read-out: pGI50 (converted)): 295 nM
CC50 (K562): > 100 µM
GI50 (NCI-H226): 537 nM
CC50 (NCI-H226): 28.8 µM
TGI (NCI-H226): 3240 nM
GI50 (HT-29): 209 nM
CC50 (HT-29): 70.8 µM
TGI (HT-29): 10.2 µM
GI50 (DU-145): 204 nM
CC50 (DU-145): > 100 µM
TGI (DU-145): 10.2 µM
GI50 (HOP-62): 525 nM
CC50 (HOP-62): 30.9 µM
TGI (HOP-62): 5.62 µM
GI50 (KM12): 708 nM
CC50 (KM12): > 100 µM
TGI (KM12): 10 µM
GI50 (ACHN): 11.5 µM
CC50 (ACHN): > 100 µM
TGI (ACHN): 64.6 µM
GI50 (HCT-116): 813 nM
CC50 (HCT-116): > 100 µM
TGI (HCT-116): 4.9 µM
GI50 (OVCAR-4): 316 nM
CC50 (OVCAR-4; OVCAR-4, read-out: pLC50 (converted)): 36.3 µM
TGI (OVCAR-4): 3800 nM
GI50 (OVCAR-5): 1660 nM
CC50 (OVCAR-5): > 100 µM
TGI (OVCAR-5): 17 µM
